The text below walks through data of patent US11839210B1, “Plant growth promoter with strigolactones regulation activities” (King Abdullah University of Science and Technology, priority 2017, dated 2023).

For one assay, the system named is epi-5DS (5-deoxystrigol). Briefly: LC-MS/MS levels of epi-5DS in rice root exudates and roots. Type of assay: in vivo. The following applies: −Pi, 5 μM zaxinone. Here is the method: (§1) For the analysis of SLs, one week-old seedlings were further transferred into 50 ml falcon tube (three seedlings per tube) containing Hoagland nutrient solution with K2HPO4·2H2O (+Pi) and grown in the growth cabinet for one week. The rice seedlings were then subjected to phosphate deficiency for another one week period. On the day of root exudates collection, rice seedlings were first treated with 5 μM zaxinone for 6 h and then root exudates and root tissues were collected from each tube for LC-MS/MS analysis and Striga bioassays.
(§2) For the quantification of 4-deoxyorobanchol in rice root exudates, 50 ml of root exudate spiked with 0.672 ng of D6-5-deoxystrigol, was brought on a 500 mg/3 ml fast SPE C18 column preconditioned with 6 ml of methanol and 6 ml of water. After washing with 6 ml of water, strigolactones were eluted in 5 ml of acetone. The 4-deoxyorobanchol fraction (acetone-water solution) was concentrated to SLs aqueous solution (˜1 ml), followed by extraction with 1 ml of ethyl acetate. Then 750 μl of 4-deoxyorobanchol enriched organic phase was transferred to a 1.5 ml tube and evaporated to dryness under vacuum. The residue was dissolved in 100 μl of acetonitrile:water (25:75, v:v) and filtered through a 0.22 μm filter for LC-MS/MS analysis.
(§3) For the quantification of 4-deoxyorobanchol in rice root, plant tissue material was lyophilized and ground. 30 mg root tissue spiked with 0.672 ng of D6-5-deoxystrigol was extracted with 2 ml of ethyl acetate in an ultrasound bath (Branson 3510 ultrasonic bath) for 15 minutes, followed by centrifugation for 8 minutes at 3800 rpm at 4° C. The supernatant was collected and the pellet was re-extracted with 2 ml of ethyl acetate. The two supernatants were then combined and dried under vacuum. The residue was dissolved in 100 μl of ethyl acetate and 2 ml of hexane. The resulting extract solution was loaded on a Silica gel SPE column (500 mg/3 ml) preconditioned with 3 ml of ethyl acetate and 3 ml of Hexane. After washing with 3 ml of Hexane, 4-deoxyorobanchol was eluted in 3 ml of ethyl acetate and evaporated to dryness under vacuum. The residue was re-dissolved in 200 μl of acetonitrile:water (25:75, v:v) and filtered through a 0.22 μm filter for LC-MS/MS analysis.
(§4) 4-Deoxyorobanchol was analyzed by using HPLC-Q-Trap-MS/MS with MRM mode. Chromatographic separation was achieved on an Agilent 1200 HPLC system with an Acquity UPLC BEH C18 column (50×2.1 mm; 1.7 μm; Waters Corp.). Mobile phases consisted of water:acetonitrile (95:5, v:v, A) and acetonitrile (B), both containing 0.1% formic acid. […]
The levels of epi-5DS (5-deoxystrigol) in root exudates (FIG. 15A) and roots (FIG. 15B) for WT and zas mutant rice under −Pi conditions (phosphate deficient) with zaxinone (5 μM) treatment were determined by LC-MS/MS. […]

In a further assay the test system is 4-deoxyorobanchol (4-DO). Briefly: LC-MS/MS quantification of 4-deoxyorobanchol in rice roots and root exudates. Type of assay: in vivo. The following applies: phosphate-starved, 6 h. Here is the method:
as §1, §2, §3, §4
SL, 4-deoxyorobanchol (4-DO), was quantified in wild-type and zas mutant roots (FIG. 18A) and root exudates (FIG. 18B) without added zaxinone and in response to zaxinone (5 μM) under phosphate starvation. […]

The next assay has as its system D10. Briefly: qRT-PCR of D10 gene expression in rice roots after zaxinone treatment. Type of assay: in vivo, rice (Oryza sativa Nipponbare). The following applies: −Pi, 6 h. How it is done: For the analysis of SL transcript levels in the zas mutant, one week-old seedlings were grown hydroponically in half-strength modified Hoagland nutrient solution with K2HPO4·2H2O (+Pi) and without K2HPO4·2H2O (−Pi) for 7 days. Seedlings were further treated with zaxinone for 6 h and tissues were collected.
Total RNA was extracted from the roots and shoots using a Qiagen Plant RNeasy Kit according to the manufacturer's instruction. cDNA was synthesized from 1 μg of total RNA using iScript cDNA Synthesis Kit (BIO-RAD Laboratories, Inc, 2000 Alfred Nobel Drive, Hercules, CA, Cat. No #170-8890) according to instructions in the user manual. For mycorrhizal samples, single-strand cDNA was synthesized from 1 μg of total RNA using Super-Script II (Invitrogen) according to instructions in the user manual. Primers used for real-time quantitative RT-PCR (qRT-PCR) analysis are listed below in Table 3. qRT-PCR was performed using SYBR Green Master Mix (Applied Biosystems; www.lifetechnologies.com) in a StepOnePlus (Life Technologies, Carlsbad, CA, USA). For mycorrhizal samples, qRT-PCR was performed using a Rotor-Gene Q 5plex HRM Platform (Qiagen). The 2-ΔCt method was used to calculate the relative gene expression levels and rice Ubiquitin (OsUBQ or OsRubQ1) gene was used as the internal control to normalize target gene expression.
14-day-old rice seedlings were transferred to new hydroponic pots containing fresh media with or without chemicals for 6 hours. SL biosynthetic (D27, D10, D17 and MAX1-Os900) gene expression were determined under −Pi conditions (phosphate deficient) with zaxinone (2.5 and 5 μM) treatment of both Nipponbare wild-type (WT) rice roots and zas mutant rice roots. The expression levels (1301) were detected by quantitative RT-PCR. Ubiquitin was used as a reference gene. Mock treatment (control) treatment consisted of 0.1% acetone. Bars (1302) show comparisons between the treatments and represent mean±SD (n=3). Decrease in SLs levels in the plants treated with zaxinone ranged from approximately 40% to 70%.

On to `CC(=O)/C=C/C=C(C)/C=C/C1=C(C)C[C@@H](O)CC1(C)C` [zaxinone, 3-OH-β-apo-13-carotenone], for which the “decrease of epi-5DS level in root exudates, mock to zaxinone” value in the assay with epi-5DS (5-deoxystrigol) (WT rice) is given as “around 75%”; with epi-5DS (5-deoxystrigol) (zas mutant rice), “approximately 64%”. Further, the entries for the “decrease of epi-5DS level in roots, mock to zaxinone” value with epi-5DS (5-deoxystrigol) (WT rice) and in the assay on epi-5DS (5-deoxystrigol) (zas mutant rice) were “around 50%” and “around 75%”, respectively. Also, the “SL content in roots and root exudates” value in the assay with 4-deoxyorobanchol (4-DO) (Shiokari d3 mutant, 5 μM) is on record as “lowered”; in the assay on 4-deoxyorobanchol (4-DO) (wild-type seedlings, 5 μM zaxinone), “Reduction of SL content”. In addition, the “SL (4-deoxyorobanchol) content in roots after zaxinone” value in the assay on 4-deoxyorobanchol (4-DO) (zas mutant seedlings, 5 μM zaxinone, untreated 13) was 5 pgmg^−1dry-root-weight. For the same molecule, in the assay with 4-deoxyorobanchol (4-DO) (zas mutant seedlings, 5 μM zaxinone, untreated 35), the “SL (4-deoxyorobanchol) content in root exudates after zaxinone” value stood at 5 pgmg^−1 dry-root-weight. The “decrease of D10 relative expression vs mock” value with D10 (WT rice roots, 2.5 μM zaxinone) was “approximately 75%”; with D10 (WT rice roots, 5.0 μM zaxinone), roughly 70%; with D10 (zas mutant rice roots, 2.5 μM zaxinone) it was “approximately 60%”; in the assay with D10 (zas mutant rice roots, 5.0 μM zaxinone) it was roughly 68%. For the same molecule, the D10 relative expression result in the assay on D10 (WT rice roots, 2.5 μM zaxinone, WT mock approx. 1.0) is on record as “approximately 0.25”; in the assay with D10 (WT rice roots, 5.0 μM zaxinone, WT mock approx. 1.0), “approximately 0.3”; in the assay on D10 (zas mutant rice roots, 2.5 μM zaxinone, zas mock approx. 2.5), “approximately 1.0”; in the assay on D10 (zas mutant rice roots, 5.0 μM zaxinone, zas mock approx. 2.5), “approximately 0.8”.
